# Results published in ChEMBL document CHEMBL4028869, “Synthesis and Bioevaluation of Macrocycle-Polyamine Conjugates as Cell Migration Inhibitors” (J Med Chem, 2017).
# Columns and labels:
# [1] = Antimigratory activity against human L3.6p1 cells at 1 uM after 24 hrs in presence of amine oxidase inhibitor aminoguanidine by scratch assay relative to control; format: functional; settings: L3.6p1, 24 h
# [2] = Selectivity ratio of IC50 for CHO-MG cells to IC50 for PTS in CHO cells; design: species or system Cricetulus griseus
# [3] = Antiproliferative activity against human L3.6p1 cells after 48 hrs in presence of amine oxidase inhibitor aminoguanidine by MTS assay; format: functional, cell-based; settings: for IC50: Homo sapiens, L3.6p1, 48 h
# [4] = Antimigratory activity against human L3.6p1 cells at 0.5 uM after 24 hrs in presence of amine oxidase inhibitor aminoguanidine by scratch assay relative to control; format: functional; settings: L3.6p1, 24 h
# [5] = Modulation of ceramide pool in human L3.6p1 cells assessed as N16:0 level per mg protein at 500 nM after 48 hrs (reference value: 0.08 +/- 0.01 nmol); format: functional
# [6] = Modulation of ceramide pool in human L3.6p1 cells assessed as N24:1 level per mg protein at 500 nM after 48 hrs (reference value: 0.37 +/- 0.06 nmol); format: functional
# [7] = Modulation of ceramide pool in human L3.6p1 cells assessed as N24:0 level per mg protein at 500 nM after 48 hrs (reference value: 0.16 +/- 0.04 nmol); format: functional
# [8] = Modulation of ceramide pool in human L3.6p1 cells assessed as total ceramide level per mg protein at 500 nM after 48 hrs (reference value: 0.62 +/- 0.10 nmol); format: functional
# [9] = Modulation of sphingomyelin pool in human L3.6p1 cells assessed as N14:0 level per mg protein at 500 nM after 48 hrs (reference value: 0.13 +/- 0.01 nmol); format: functional
# [10] = Modulation of sphingomyelin pool in human L3.6p1 cells assessed as N15:0 level per mg protein at 500 nM after 48 hrs (reference value: 0.12 nmol); format: functional
# [11] = Modulation of sphingomyelin pool in human L3.6p1 cells assessed as N16:1 level per mg protein at 500 nM after 48 hrs (reference value: 0.28 +/- 0.01 nmol); format: functional
# [12] = Modulation of sphingomyelin pool in human L3.6p1 cells assessed as N16:0 level per mg protein at 500 nM after 48 hrs (reference value: 2.60 +/- 0.06 nmol); format: functional
# [13] = Modulation of sphingomyelin pool in human L3.6p1 cells assessed as N17:0 level per mg protein at 500 nM after 48 hrs (reference value: 0.05 +/- 0.01 nmol); format: functional
# [14] = Modulation of sphingomyelin pool in human L3.6p1 cells assessed as N18:1 level per mg protein at 500 nM after 48 hrs (reference value: 0.07 nmol); format: functional
# [15] = Modulation of sphingomyelin pool in human L3.6p1 cells assessed as N18:0 level per mg protein at 500 nM after 48 hrs (reference value: 0.19 +/- 0.01 nmol); format: functional
# [16] = Modulation of sphingomyelin pool in human L3.6p1 cells assessed as N19:0 level per mg protein at 500 nM after 48 hrs (reference value: 0.01 nmol); format: functional
# [17] = Modulation of sphingomyelin pool in human L3.6p1 cells assessed as N20:1 level per mg protein at 500 nM after 48 hrs (reference value: 0.02 nmol); format: functional
# [18] = Modulation of sphingomyelin pool in human L3.6p1 cells assessed as N20:0 level per mg protein at 500 nM after 48 hrs (reference value: 0.06 +/- 0.01 nmol); format: functional
# [19] = Modulation of sphingomyelin pool in human L3.6p1 cells assessed as N21:0 level per mg protein at 500 nM after 48 hrs (reference value: 0.03 nmol); format: functional
# [20] = Modulation of sphingomyelin pool in human L3.6p1 cells assessed as N22:2 level per mg protein at 500 nM after 48 hrs (reference value: 0.01 nmol); format: functional
# [21] = Modulation of sphingomyelin pool in human L3.6p1 cells assessed as N22:1 level per mg protein at 500 nM after 48 hrs (reference value: 0.17 +/- 0.01 nmol); format: functional
# [22] = Modulation of sphingomyelin pool in human L3.6p1 cells assessed as N22:0 level per mg protein at 500 nM after 48 hrs (reference value: 0.23 +/- 0.01 nmol); format: functional
# [23] = Modulation of sphingomyelin pool in human L3.6p1 cells assessed as N23:2 level per mg protein at 500 nM after 48 hrs (reference value: 0.01 nmol); format: functional
# [24] = Modulation of sphingomyelin pool in human L3.6p1 cells assessed as N23:1 level per mg protein at 500 nM after 48 hrs (reference value: 0.10 nmol); format: functional
# [25] = Modulation of sphingomyelin pool in human L3.6p1 cells assessed as N23:0 level per mg protein at 500 nM after 48 hrs (reference value: 0.07 nmol); format: functional
# [26] = Modulation of sphingomyelin pool in human L3.6p1 cells assessed as N24:2 level per mg protein at 500 nM after 48 hrs (reference value: 0.30 +/- 0.01 nmol); format: functional
# [27] = Modulation of sphingomyelin pool in human L3.6p1 cells assessed as N24:1 level per mg protein at 500 nM after 48 hrs (reference value: 1.07 +/- 0.03 nmol); format: functional
# [28] = Modulation of sphingomyelin pool in human L3.6p1 cells assessed as N24:0 level per mg protein at 500 nM after 48 hrs (reference value: 0.32 +/- 0.01 nmol); format: functional
# [29] = Modulation of sphingomyelin pool in human L3.6p1 cells assessed as N25:1 level per mg protein at 500 nM after 48 hrs (reference value: 0.02 +/- 0.01 nmol); format: functional
# [30] = Modulation of sphingomyelin pool in human L3.6p1 cells assessed as N25:0 level per mg protein at 500 nM after 48 hrs (reference value: 0.01 nmol); format: functional
# [31] = Modulation of sphingomyelin pool in human L3.6p1 cells assessed as N26:1 level per mg protein at 500 nM after 48 hrs (reference value: 0.02 nmol); format: functional
# [32] = Modulation of sphingomyelin pool in human L3.6p1 cells assessed as total sphingomyelin level per mg protein at 500 nM after 48 hrs (reference value: 5.91 +/- 0.11 nmol); format: functional
# Mus musculus [33] = species on record: Mus musculus; test: Increase in SGMS activity in mouse PancO2 cell lysates assessed as induction of NBD-sphingomyelin production at 0.5 uM using C12-NBD-ceramide substrate after 72 hrs by TLC relative to control
# Mus musculus [34] = species on record: Mus musculus; test: Increase in SGMS activity in mouse PancO2 cell lysates assessed as induction of NBD-sphingomyelin production at 1 uM using C12-NBD-ceramide substrate after 72 hrs by TLC relative to control
# [35] = Substrate activity at PTS in CHO cells assessed as reduction in cell viability after 48 hrs in presence of aminoguanidine by MTS assay; format: cell-based; settings: Cricetulus griseus
# CHO-MG = test: Cytotoxicity against CHO-MG cells assessed as reduction in cell viability after 48 hrs in presence of aminoguanidine by MTS assay; format: cell-based; settings: Cricetulus griseus
# [36] = Solubility in water; format: physicochemical; settings: buffer
smiles,measurement,setting,value
NCCNCCN,inhibition at 1 µM,[1],0%
Cl.Cl.Cl.NCCCNCCCN1CCCCCCCCCCCCCC1,Ratio IC50,[2],1
same,IC5,[3],0.6 µM
same,IC50,[3],990 nM
same,inhibition at 0.5 µM,[4],20.6%
same,inhibition at 1 µM,[1],39.8%
same,Activity,[5],0.17 nmol
same,Activity,[6],0.51 nmol
same,Activity,[7],0.2 nmol
same,Activity,[8],0.89 nmol
same,Activity,[9],0.14 nmol
same,Activity,[10],0.14 nmol
same,Activity,[11],0.33 nmol
same,Activity,[12],3.26 nmol
same,Activity,[13],0.06 nmol
same,Activity,[14],0.11 nmol
same,Activity,[15],0.32 nmol
same,Activity,[16],0.01 nmol
same,Activity,[17],0.03 nmol
same,Activity,[18],0.1 nmol
same,Activity,[19],0.05 nmol
same,Activity,[20],0.02 nmol
same,Activity,[21],0.27 nmol
same,Activity,[22],0.35 nmol
same,Activity,[23],0.01 nmol
same,Activity,[24],0.14 nmol
same,Activity,[25],0.1 nmol
same,Activity,[26],0.41 nmol
same,Activity,[27],1.49 nmol
same,Activity,[28],0.39 nmol
same,Activity,[29],0.03 nmol
same,Activity,[30],0.03 nmol
same,Activity,[31],0.04 nmol
same,Activity,[32],7.84 nmol
same,Activity,Mus musculus [33],89%
same,Activity,Mus musculus [34],75%
Cl.Cl.Cl.NCCCNCCCNCC1CCCCCCCCCCCCCC1,Ratio IC50,[2],1
same,IC5,[3],80 µM
same,IC50,[3],89400 nM
same,inhibition at 0.5 µM,[4],20.2%
same,inhibition at 1 µM,[1],29.9%
same,Activity,[5],0.11 nmol
same,Activity,[6],0.37 nmol
same,Activity,[7],0.14 nmol
same,Activity,[8],0.63 nmol
same,Activity,[9],0.13 nmol
same,Activity,[10],0.13 nmol
same,Activity,[11],0.3 nmol
same,Activity,[12],2.84 nmol
same,Activity,[13],0.06 nmol
same,Activity,[14],0.1 nmol
same,Activity,[15],0.27 nmol
same,Activity,[16],0.01 nmol
same,Activity,[17],0.03 nmol
same,Activity,[18],0.09 nmol
same,Activity,[19],0.04 nmol
same,Activity,[20],0.02 nmol
same,Activity,[21],0.22 nmol
same,Activity,[22],0.31 nmol
same,Activity,[23],0.01 nmol
same,Activity,[24],0.12 nmol
same,Activity,[25],0.09 nmol
same,Activity,[26],0.36 nmol
same,Activity,[27],1.22 nmol
same,Activity,[28],0.36 nmol
same,Activity,[29],0.03 nmol
same,Activity,[30],0.02 nmol
same,Activity,[31],0.03 nmol
same,Activity,[32],6.79 nmol
same,Activity,Mus musculus [33],88%
same,Activity,Mus musculus [34],97%
Cl.Cl.Cl.NCCCCNCCCCNCc1c2ccccc2cc2ccccc12,Ratio IC50,[2],148
Cl.Cl.Cl.Cl.NCCNCCNCCNCC1CCCCCCCCCCCCCC1,IC50,[35],2370 nM
same,IC50,CHO-MG,2620 nM
same,Ratio IC50,[2],1.1
same,IC5,[3],0.92 µM
same,IC50,[3],1640 nM
same,inhibition at 0.5 µM,[4],6.1%
same,inhibition at 1 µM,[1],16.8%
same,Activity,[5],0.09 nmol
same,Activity,[6],0.28 nmol
same,Activity,[7],0.11 nmol
same,Activity,[8],0.49 nmol
same,Activity,[9],0.13 nmol
same,Activity,[10],0.12 nmol
same,Activity,[11],0.28 nmol
same,Activity,[12],2.66 nmol
same,Activity,[13],0.05 nmol
same,Activity,[14],0.09 nmol
same,Activity,[15],0.24 nmol
same,Activity,[16],0.01 nmol
same,Activity,[17],0.02 nmol
same,Activity,[18],0.08 nmol
same,Activity,[19],0.03 nmol
same,Activity,[20],0.02 nmol
same,Activity,[21],0.19 nmol
same,Activity,[22],0.28 nmol
same,Activity,[23],0.01 nmol
same,Activity,[24],0.11 nmol
same,Activity,[25],0.08 nmol
same,Activity,[26],0.31 nmol
same,Activity,[27],1.15 nmol
same,Activity,[28],0.32 nmol
same,Activity,[29],0.02 nmol
same,Activity,[30],0.02 nmol
same,Activity,[31],0.03 nmol
same,Activity,[32],6.25 nmol
Cl.Cl.NCCNCC1CCCCCCCCCCCCCC1,IC50,[35],2660 nM
same,IC50,CHO-MG,2370 nM
same,Ratio IC50,[2],0.9
same,IC5,[3],0.6 µM
same,IC50,[3],1440 nM
same,inhibition at 0.5 µM,[4],6.2%
same,inhibition at 1 µM,[1],26.2%
Cl.Cl.NCCNCc1c2ccccc2cc2ccccc12,IC50,[35],1960 nM
same,IC50,CHO-MG,11300 nM
same,Ratio IC50,[2],5.8
same,IC5,[3],4.15 µM
same,IC50,[3],24100 nM
same,inhibition at 0.5 µM,[4],6.2%
Cl.Cl.Cl.NCCCNCCCNCCC1CCCCCCCCCCCCCC1,IC50,[35],2510 nM
same,IC50,CHO-MG,2800 nM
same,Ratio IC50,[2],1.1
same,IC5,[3],1.64 µM
same,IC50,[3],3340 nM
same,inhibition at 0.5 µM,[4],-15.5%
same,inhibition at 1 µM,[1],1.5%
Cl.Cl.Cl.NCCNCCNCC1CCCCCCCCCCCCCC1,IC50,[35],2480 nM
same,IC50,CHO-MG,2550 nM
same,Ratio IC50,[2],1
same,IC5,[3],0.6 µM
same,IC50,[3],1250 nM
same,inhibition at 0.5 µM,[4],10.2%
same,inhibition at 1 µM,[1],26.8%
NCCNCCNCCN [TRIENTINE],inhibition at 1 µM,[1],0%
OCC1CCCCCCCCCCCCCC1,IC50,[35],> 100000 nM
same,IC50,CHO-MG,> 100000 nM
same,IC5,[3],8.4 µM
same,IC50,[3],42000 nM
same,inhibition at 1 µM,[1],-37.2%
same,solubility,[36],Insoluble
Cl.Cl.Cl.NCCCNCCCNC1CCCCCCCCCCCCCC1,Ratio IC50,[2],2.1
same,Activity,Mus musculus [33],75%
same,Activity,Mus musculus [34],82%
